Source: paper PMC9409043, “Serotonin 5-HT6 Receptor Ligands and Butyrylcholinesterase Inhibitors Displaying Antioxidant Activity—Design, Synthesis and Biological Evaluation of Multifunctional Agents against Alzheimer’s Disease” (International Journal of Molecular Sciences, 2022)

Assays:
[1] = system: patients with moderate Alzheimer’s dementia; settings: phase II, adjunct to cholinesterase inhibitors, moderate Alzheimer’s dementia ref 14, 15; cited from earlier work
[2] = target: T1, BuChE isolated from human plasma (hBuChE) (Homo sapiens, UniProt P06276); assay: biochemical; assay type: biochemical; settings: mean ± SEM of at least three experiments
T1 construct: BuChE isolated from human plasma (hBuChE); tissue Vivonics (Bedford, MA, USA), donated; host or cells: human plasma
Procedure: (§1) 5-HT6R binding affinity and cholinesterase (AChE/BuChE) inhibitory activity. […] Their affinities for recombinant human 5-HT6 receptors (h5-HT6R) were tested in a radioligand binding assay and the inhibitory potencies against human recombinant AChE (hAChE) and BuChE isolated from human plasma (hBuChE) in the spectrophotometric Ellman’s assay.
(§2) The assay was based on spectrophotometric Ellman’s method and was performed in 96-well microplates with the reagents purchased from Sigma-Aldrich (Steinheim, Germany) according to the previously described procedure. hBuChE was kindly donated by Vivonics (Bedford, MA, USA). […] After 5 minutes of the enzymatic reaction, the changes in absorbance were measured at 412 nm, using a microplate reader (SPECTROstar Nano; BMG Labtech, Ortenberg, Germany). First, compounds were tested at the screening concentration of 10 µM. Based on the equation 100 − (S/B) × 100 (where S and B were the respective enzyme activities with and without the test sample, respectively) the percentage inhibition of each enzyme for each compound was calculated. […] The IC50 values were calculated using nonlinear regression (GraphPad Prism 5; GraphPad Software, San Diego, CA, USA) by plotting the residual enzyme activities against the applied inhibitor concentration. […] All experiments were performed in triplicate.

[3] = Metabolic stability in human liver microsomes; assay type: in vitro ADME
Procedure: Metabolic stability. […] For detailed results, including UPLC chromatograms and MS spectra, see the Supporting information (Figures S1–S16).
The metabolic stability was evaluated by incubation of compounds with human liver microsomes (Sigma-Aldrich, St. Louis, MO, USA) in 10 mM Tris–HCl buffer (pH 7.4) at 37 °C for 120 min in the presence of NADPH Regeneration System (Promega, Madison, WI, USA). The percentage of the remaining substrate and the most probable metabolic pathways were estimated by UPLC-MS analyses of the reaction mixtures.

[4] = ABTS free radical scavenging assay
Source text: Antioxidant activity. As mentioned before, oxidative stress is one of the components of AD pathomechanism and is characterised by an imbalance in the production of ROS. One of the mechanisms by which antioxidants reduce the concentration of ROS and therefore prevent or slow the cell damage caused by free radicals is scavenging them. Thus, we tested the scavenging ability of compounds 12–19 in the spectrophotometric ABTS assay that we used before. In this assay, the ability of compounds to scavenge ABTS^• radicals, which are generated from 2,2’-azino-bis(3-ethylbenzothiazoline-6-sulphonic acid) (ABTS), is measured. We tested the compounds at three concentrations: 30, 75 and 150 μM after 5, 30 and 60 min of incubation using Trolox, a water-soluble vitamin E analogue, as a reference (Table S1 in Supporting information).
The spectrophotometric ABTS assay was performed in 96-well microplates with the reagents purchased from Sigma-Aldrich (Steinheim, Germany) according to the previously described procedure. Stock solutions of the tested compounds (6.4 mM) and reagents were prepared in DMSO and water, respectively. 2,2′-Azino-bis(3-ethylbenzothiazoline-6-sulfonic acid) free radical (ABTS^•) was prepared by mixing the stock solution of ABTS (7 mM) and […] (2.45 mM) in ratio 1:1. The mixture was kept in the dark at 4 °C for 16 h. The obtained solution of (ABTS^•) was diluted with water 20 times. Then, the test compound or water or mixture of DMSO/water in the appropriate ratio (0.02 mL) was added to ABTS^• solution (0.18 mL). The three concentrations of the test compounds and Trolox were tested in triplicate: 0.15, 0.075 and 0.03 mM. Changes in absorbance were measured at 734 nm after 5, 30 and 60 min, using a microplate reader (SPECTROstar Nano; BMG Labtech, Ortenberg, Germany). Based on the equation ((A0 − A)/A0) × 100% (where A0 and A were the absorbances without and with the test compound, respectively) the percentage of free radical scavenging activity was calculated. The results are presented as mean ± SD.

[5] = target: T2, human recombinant AChE (hAChE) (Homo sapiens, UniProt P22303); assay: biochemical; settings: mean ± SEM of at least three experiments
T2 construct: purchased Sigma-Aldrich (Steinheim, Germany)
Procedure: as §1, §2

CYP2D6 = target: T3, CYP2D6 (Homo sapiens, UniProt P10635); assay: CYP P450-Glo luminescence assay, CYP2D6; assay type: in vitro ADME
T3 construct: purchased Promega, Madison, WI, USA
Source text: Influence on CYP3A4 and CYP2D6 activity. Possible drug–drug interactions (DDIs) are an important issue for elderly patients, who are usually on multiple medications. They may result, among other things, from the interactions (inhibition or activation) of the cytochrome P450 isoenzymes, especially CYP3A4 and CYP2D6, which play the most significant role in drugs’ biotransformation. Therefore, to predict the potential influence of the studied compounds (14, 16 and 19) on the metabolism of other drugs, we used the CYP450 inhibition luminescence assay (Promega). […]. […] […]. […] […].
The influence on CYP 3A4 and 2D6 activity was estimated by respective luminescent CYP P450-Glo™ assay (Promega®, Madison, WI, USA). The compounds were tested in the concentration range of 0.1–25 µM. The results were compared to the respective reference CYP inhibitors: ketoconazole and quinidine.

human 5-HT6 receptor = target: T4, human 5-HT6 receptor (Homo sapiens, UniProt P50406); assay: 5-HT6 receptor radioligand binding assay ([3H]-LSD, CHO-K1 membranes)
T4 construct: purchased PerkinElmer; host or cells: CHO-K1 cells, stably transfected (membrane preparation)
Procedure: 5-HT6R binding affinity and cholinesterase (AChE/BuChE) inhibitory activity. We evaluated the pharmacological properties of the final compounds 12–19 in vitro according to the previously described, well-established protocols. Their affinities for recombinant human 5-HT6 receptors (h5-HT6R) were tested in a radioligand binding assay and the inhibitory potencies against human recombinant AChE (hAChE) and BuChE isolated from human plasma (hBuChE) in the spectrophotometric Ellman’s assay. […].
We prepared 10 mM of stock solutions of tested compounds in DMSO. Serial dilutions of compounds were prepared in a 96-well microplate in assay buffers using the automated pipetting system epMotion 5070 (Eppendorf). Each compound was tested in 8 concentrations from 10^−5 to 10^−12 M (final concentration).
The radioligand binding assay was performed using membranes from CHO-K1 cells stably transfected with the human 5-HT6 receptor (PerkinElmer) according to the previously described procedure. All assays were carried out in duplicates. We prepared 50 µL working solution of the tested compounds, 50 µL [^3H]-LSD (final concentration 2.5 nM) and 150 µL diluted membranes (15 µg protein per well) in assay buffer (50 mM Tris, pH 7.4, 10 mM MgCl2, 0.1 mM EDTA) and transferred them to polypropylene 96-well microplates using a 96-well pipetting station Rainin Liquidator (MettlerToledo). Methiothepin (10 μM) was used to define nonspecific binding. The microplate was covered with sealing tape, mixed and incubated for 60 min at 27 °C. The reaction was terminated by rapid filtration through GF/B filter mate presoaked with 0.5% polyethyleneimine for 30 min. Ten rapid washes with 200 µL 50 mM Tris buffer (4 °C, pH 7.4) were performed using the automated harvester system Harvester-96 MACH III FM (Tomtec). The filter mates were dried at 37 °C in a forced air fan incubator and then solid scintillator MeltiLex was melted on filter mates at 90 °C for 5 min. Radioactivity was counted in MicroBeta2 scintillation counter (PerkinElmer). Data were fitted to a one-site curve-fitting equation with Prism 6 (GraphPad Software) and Ki values were estimated from the Cheng−Prusoff equation.

[6] = Metabolic stability in mouse liver microsomes; assay type: in vitro ADME; settings: 2 h, pH 7.4

T3 sequence (P10635 whole entry): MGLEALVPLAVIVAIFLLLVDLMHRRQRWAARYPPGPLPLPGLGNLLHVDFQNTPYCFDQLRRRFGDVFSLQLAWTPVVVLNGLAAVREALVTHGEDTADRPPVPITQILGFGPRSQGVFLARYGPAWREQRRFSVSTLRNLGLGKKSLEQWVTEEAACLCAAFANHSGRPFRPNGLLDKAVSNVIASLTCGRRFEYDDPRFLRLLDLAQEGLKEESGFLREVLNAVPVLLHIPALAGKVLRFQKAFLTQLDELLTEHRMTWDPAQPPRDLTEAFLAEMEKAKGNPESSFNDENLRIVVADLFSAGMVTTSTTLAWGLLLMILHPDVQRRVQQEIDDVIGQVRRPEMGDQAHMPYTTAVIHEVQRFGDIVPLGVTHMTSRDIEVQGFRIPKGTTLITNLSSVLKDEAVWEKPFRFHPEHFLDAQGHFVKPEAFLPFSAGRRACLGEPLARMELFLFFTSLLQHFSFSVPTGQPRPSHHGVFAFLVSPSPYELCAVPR
T1 sequence (P06276 29-602): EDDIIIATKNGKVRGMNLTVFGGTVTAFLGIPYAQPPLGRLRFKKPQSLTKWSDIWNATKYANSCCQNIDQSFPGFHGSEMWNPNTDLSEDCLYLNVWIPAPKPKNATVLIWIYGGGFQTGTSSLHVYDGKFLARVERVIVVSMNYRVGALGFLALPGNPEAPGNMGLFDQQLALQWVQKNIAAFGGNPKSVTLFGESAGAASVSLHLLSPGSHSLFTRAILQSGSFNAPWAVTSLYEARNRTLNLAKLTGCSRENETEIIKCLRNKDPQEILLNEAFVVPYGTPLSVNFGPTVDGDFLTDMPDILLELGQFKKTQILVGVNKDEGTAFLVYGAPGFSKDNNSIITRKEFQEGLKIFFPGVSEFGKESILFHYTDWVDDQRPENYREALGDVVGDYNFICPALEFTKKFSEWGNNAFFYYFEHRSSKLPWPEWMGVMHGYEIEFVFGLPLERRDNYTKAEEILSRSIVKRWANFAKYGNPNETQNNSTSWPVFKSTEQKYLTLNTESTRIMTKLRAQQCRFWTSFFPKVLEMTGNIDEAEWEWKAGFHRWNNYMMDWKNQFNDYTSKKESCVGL
T2 sequence (P22303 32-614): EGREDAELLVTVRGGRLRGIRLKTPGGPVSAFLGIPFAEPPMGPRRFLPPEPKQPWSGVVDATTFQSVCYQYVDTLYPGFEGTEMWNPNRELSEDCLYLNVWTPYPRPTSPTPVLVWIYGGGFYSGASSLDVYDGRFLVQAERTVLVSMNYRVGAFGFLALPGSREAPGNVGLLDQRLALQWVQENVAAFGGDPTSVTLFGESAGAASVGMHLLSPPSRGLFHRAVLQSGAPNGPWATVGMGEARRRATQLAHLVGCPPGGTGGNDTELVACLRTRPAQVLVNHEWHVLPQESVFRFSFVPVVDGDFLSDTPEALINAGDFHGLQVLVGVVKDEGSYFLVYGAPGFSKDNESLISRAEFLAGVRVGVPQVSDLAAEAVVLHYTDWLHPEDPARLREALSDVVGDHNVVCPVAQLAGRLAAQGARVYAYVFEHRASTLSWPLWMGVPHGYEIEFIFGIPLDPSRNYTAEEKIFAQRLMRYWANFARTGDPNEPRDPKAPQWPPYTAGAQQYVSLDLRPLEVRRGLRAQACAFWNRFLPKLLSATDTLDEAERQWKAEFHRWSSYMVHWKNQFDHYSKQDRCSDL
T4 sequence (P50406 whole entry): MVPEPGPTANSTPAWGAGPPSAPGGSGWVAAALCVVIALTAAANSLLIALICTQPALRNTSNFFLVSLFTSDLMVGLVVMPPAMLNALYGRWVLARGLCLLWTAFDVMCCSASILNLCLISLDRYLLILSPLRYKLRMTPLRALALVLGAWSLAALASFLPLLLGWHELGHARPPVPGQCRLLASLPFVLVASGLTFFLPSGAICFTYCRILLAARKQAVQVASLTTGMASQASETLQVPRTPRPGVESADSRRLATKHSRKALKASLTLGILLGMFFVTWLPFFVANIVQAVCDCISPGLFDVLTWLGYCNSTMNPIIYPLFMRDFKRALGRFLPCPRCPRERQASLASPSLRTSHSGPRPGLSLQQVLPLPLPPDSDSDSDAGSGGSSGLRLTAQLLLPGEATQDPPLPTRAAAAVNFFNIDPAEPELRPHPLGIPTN

## O=S(=O)(c1ccccc1)c1cnc2c(N3CCNCC3)cccc2c1 [intepirdine]
[1]
  effects on cognition: positive effects on cognition

## Fc1ccc2c(CCNCc3cccc(OCC(F)(F)C(F)F)c3)c[nH]c2c1 [Idalopirdine]
[1]
  effects on cognition: positive effects on cognition

## O=c1[nH]c2c(OCCNCCCC3CCN(Cc4ccccc4)CC3)cccc2n1Cc1ccccc1 [Compound 19, 1-Benzyl-4-(2-((3-(1-benzylpiperidin-4-yl)propyl)amino)ethoxy)-1,3-dihydro-2H-benzo[d]imidazol-2-one]
[2]
  IC50: 613 ± 11 nM
[3]
  main metabolic pathway: oxidative deamination
[3]; human, 2 h, pH 7.4
  HLMs % Left: 94.00%
[4]; 30 µM, 5 min
  % of ABTS• reduction ± SD: 10±0%
[4]; 30 µM, 30 min
  % of ABTS• reduction ± SD: 17±0%
[4]; 30 µM, 60 min
  % of ABTS• reduction ± SD: 22±1%
[4]; 75 µM, 5 min
  % of ABTS• reduction ± SD: 14±1%
[4]; 75 µM, 30 min
  % of ABTS• reduction ± SD: 24±2%
[4]; 75 µM, 60 min
  % of ABTS• reduction ± SD: 30±2%
[4]; 150 µM, 5 min
  % of ABTS• reduction ± SD: 25±4%
[4]; 150 µM, 30 min
  % of ABTS• reduction ± SD: 37±5%
[4]; 150 µM, 60 min
  % of ABTS• reduction ± SD: 43±4%
[5]
  IC50: 544 ± 15 nM
CYP2D6; 0.1 µM
  influence on the activity of CYP2D6: did not influence the activity of CYP2D6
CYP2D6; 1 µM
  influence on the activity of CYP2D6: CYP2D6-activating effect
Human 5-HT6 receptor
  Ki: 480 ± 48 nM
[6]
  MLMs % Left: 79.38%
